In US20240156999A1, “MULTIMERIC CHELATOR COMPOUNDS FOR USE IN TARGETED RADIOTHERAPY” (Bayer Aktiengesellschaft, priority 2021, published 2024):

What was measured:
[1] = Radiochemical purity (RCP) by iTLC after radiolabeling with Ac-225; format: physicochemical; settings: labelling concentration 0.02 mM
Experimental: (§1) Aliquots of Ac-225 in 0.04 M HCl or Ra-223 in 0.05 M HCl were withdrawn into Eppendorf tubes. The radioactivity in each tube was measured by HPGe detector. Solutions of compounds in 0.1 M sodium acetate, pH 5-5.5 (with additional 0.1 M NaCl for ACC solutions) were added to the tubes. RAC was in the range of 1-5 M Bq/mL and specific activity in the range of 2-200 kBq/nmol. The labelling solutions were left for 60-90 min at room temperature.
(§2) Radiochemical purity (RCP) of the labeled compounds was determined by iTLC. iTLC strips were cut from silica impregnated chromatography paper, approx. 1 cm wide and 11 cm long. The strips were marked with a pen at 1 cm (application point), 4 cm (cut line for ACCs) or 5 cm (cut line for chelators) and 8 cm (front line). A beaker was filled up to 0.5 cm with 0.1 M citrate in 0.9% NaCl, pH 5.5. 1-10 μL of the radiolabeled compound was added to the application point and the strips immediately placed vertically in the beaker. The strips were removed when the solvent front reached the front line and then cut in two sections at the cut line. Each section was measured using a HPGe detector (ORTEC) to determine the radioactivity origin from the nuclide of interest. The RCP, in percentage, forthe nuclide of interest was calculated using the following equation: […]

[2] = Radiochemical purity (RCP) by iTLC after radiolabeling with Ra-223; format: physicochemical; settings: for labelling efficiency with radium-223: compared to monomeric macropa, at 0.1 and 0.02 mM, as low as 0.005 mM for Oct2; for RCP Ra-223: iTLC
Experimental: as §1, §2

[3] = cited from earlier work
[4] = Radio-HPLC analysis of Ra-223 labelled compound with peak fractioning; format: physicochemical
Experimental: Radiolabeled compounds were analyzed by radio-HPLC using either a) Vanquish HPLC system (Thermo) equipped with a diode array detector and a Flowstar LB 514 radio detector (Berthold technologies); or b) an 1290 Infinity-II HPLC system (Agilent) equipped with a diode array detector and flow-count radio detector (Eckert & Ziegler).
Labelled chelator compounds were eluted using A=40 mM TRIS/6 mM citrate/2 mM EDTA and B=ACN/MeOH (8:2); aKinetexC18 (30×2.1 mm), 1.7 μm, 100 Å, Phenomenex); gradient 5-50% B for 10 min; flow rate of 0.3 mL/min or a Discovery RP amide c16 (150×2.1mm), 5 um, 100 Å, Gradient: 5-50% B for 12.5 min; flow rate of 0.6 mL/min.
Radio-HPLC peak fractioning was performed to determine the radionuclide(s) associated to each radio peak. The collected peak fractions were analysed using an HPGe detector.

[5] = labelling concentration 0.02 mM
[6] = labelling concentration 0.005 mM
[7] = labelling concentration 0.27 mM

Row | Compound | RCP Ac-225 [1] [%] | labelling efficiency with radium-223 [2] | RCP Ra-223 [2, 5] [%] | RCP Ra-223 [2, 6] [%] | further results
1 | COC(=O)c1cccc(CN2CCOCCOCCN(Cc3cc(NC(=O)COCC(=O)NCCN(CCN)CCCN(CCN)CCNC(=O)COCC(=O)Nc4cc(CN5CCOCCOCCN(Cc6cccc(C(=O)OC)n6)CCOCCOCC5)nc(C(=O)OC)c4)cc(C(=O)OC)n3)CCOCCOCC2)n1 [Dim1, Dimethyl 4,4′-{[9,13-bis(2-aminoethyl)-1,5,17,21-tetraoxo-3,19-dioxa-6,9,13,16-tetraazahenicosane-1,21-diyl]diimino}bis{6-[(16-{[6-(methoxycarbonyl)pyridin-2-yl]methyl}-1,4,10,13-tetraoxa-7,16-diazacyclooctadecan-7-yl)methyl]pyridine-2-carboxylate}] | 100 | high labelling efficiency | 80 |  | 
2 | O=C(O)c1cccc(CN2CCOCCOCCN(Cc3cccc(CN4CCOCCOCCN(Cc5cccc(C(=O)O)n5)CCOCCOCC4)n3)CCOCCOCC2)n1 [Dim2, 6,6′-[pyridine-2,6-diylbis(methylene-1,4,10,13-tetraoxa-7,16-diazacyclooctadecane-16,7-diylmethylene)]dipyridine-2-carboxylic acid] | 100 |  |  |  | RCP Ra-223 ([2]; labelling concentration 0.2 mM): 11%
3 | O=C(O)c1cccc(CN2CCOCCOCCN(Cc3cccc(C(=O)NCCCC[C@@H](NC(=O)c4cccc(CN5CCOCCOCCN(Cc6cccc(C(=O)O)n6)CCOCCOCC5)n4)C(=O)O)n3)CCOCCOCC2)n1 [Dim3, 6-[[16-[[6-[[(5R)-5-carboxy-5-[[6-[[16-[(6-carboxy-2-pyridyl)methyl]-1,4,10,13-tetraoxa-7,16-diazacyclooctadec-7-yl]methyl]pyridine-2-carbonyl]amino]pentyl]carbamoyl]-2-pyridyl]methyl]-1,4,10,13-tetraoxa-7,16-diazacyclooctadec-7-yl]methyl]pyridine-2-carboxylic acid] | 100 |  |  |  | RCP Ra-223 ([2]; labelling concentration 0.2 mM): 32%
4 | O=C(O)c1cccc(CN2CCOCCOCCN(Cc3cccc(C(=O)O)n3)CCOCCOCC2)n1 [Macropa, 6,6′-[1,4,10,13-tetraoxa-7,16-diazacyclooctadecane-7,16-diylbis(methylene)]dipyridine-2-carboxylic acid, reference compound] | 100 |  |  | 8 | selectivity for large over small alkaline earth metals [3]: excellent selectivity; affinity for Ba2+ ([3]; pH 7.4): highest affinity; complexation of radium-223 ([2]; at 0.1, 0.02 and 0.005 mM concentrations): no complexation of radium-223 was observed; RCP Ra-223 [2, 7]: 12%
5 | Nc1cc(CN2CCOCCOCCN(Cc3cccc(C(=O)O)n3)CCOCCOCC2)nc(C(=O)O)c1 [Macropa-NH2, reference compound] | 99 |  |  |  | RCP Ra-223 ([2]; labelling concentration 0.1 mM): 2%; RCP Ra-223 [2, 7]: 12%
6 | O=C(CCc1cc(CN2CCOCCOCCN(Cc3cccc(C(=O)O)n3)CCOCCOCC2)nc(C(=O)O)c1)NCCCC[C@H](NC(=O)CCc1cc(CN2CCOCCOCCN(Cc3cccc(C(=O)O)n3)CCOCCOCC2)nc(C(=O)O)c1)C(=O)NCCN(CCCN(CCNC(=O)[C@H](CCCCNC(=O)CCc1cc(CN2CCOCCOCCN(Cc3cccc(C(=O)O)n3)CCOCCOCC2)nc(C(=O)O)c1)NC(=O)CCc1cc(CN2CCOCCOCCN(Cc3cccc(C(=O)O)n3)CCOCCOCC2)nc(C(=O)O)c1)CCNC(=O)[C@H](CCCCNC(=O)CCc1cc(CN2CCOCCOCCN(Cc3cccc(C(=O)O)n3)CCOCCOCC2)nc(C(=O)O)c1)NC(=O)CCc1cc(CN2CCOCCOCCN(Cc3cccc(C(=O)O)n3)CCOCCOCC2)nc(C(=O)O)c1)CCNC(=O)[C@H](CCCCNC(=O)CCc1cc(CN2CCOCCOCCN(Cc3cccc(C(=O)O)n3)CCOCCOCC2)nc(C(=O)O)c1)NC(=O)CCc1cc(CN2CCOCCOCCN(Cc3cccc(C(=O)O)n3)CCOCCOCC2)nc(C(=O)O)c1 [Oct2] |  | high labelling efficiency |  | 64 | 
7 | COC(=O)c1cccc(CN2CCOCCOCCN(Cc3cc(NC(=O)COCC(=O)NCCN(CCCN(CCNC(=O)COCC(=O)Nc4cc(CN5CCOCCOCCN(Cc6cccc(C(=O)OC)n6)CCOCCOCC5)nc(C(=O)OC)c4)CCNC(=O)COCC(=O)Nc4cc(CN5CCOCCOCCN(Cc6cccc(C(=O)OC)n6)CCOCCOCC5)nc(C(=O)OC)c4)CCNC(=O)COCC(=O)Nc4cc(CN5CCOCCOCCN(Cc6cccc(C(=O)OC)n6)CCOCCOCC5)nc(C(=O)OC)c4)cc(C(=O)OC)n3)CCOCCOCC2)n1 [Tet1] | 99 | high labelling efficiency | 95 |  | labeling of solution with Ra-223 ([4]; 0.02 mM solution): efficient labeling; wash through of free radioactivity in the void volume ([4]; radio HPLC, Ra-223 labelled): almost no wash through of free radioactivity
8 | O=C(COCC(=O)Nc1cc(CN2CCOCCOCCN(Cc3cccc(C(=O)O)n3)CCOCCOCC2)nc(C(=O)O)c1)NCCN(CCCN(CCNC(=O)COCC(=O)Nc1cc(CN2CCOCCOCCN(Cc3cccc(C(=O)O)n3)CCOCCOCC2)nc(C(=O)O)c1)CCNC(=O)COCC(=O)Nc1cc(CN2CCOCCOCCN(Cc3cccc(C(=O)O)n3)CCOCCOCC2)nc(C(=O)O)c1)CCNC(=O)COCC(=O)Nc1cc(CN2CCOCCOCCN(Cc3cccc(C(=O)O)n3)CCOCCOCC2)nc(C(=O)O)c1 [Tet2, 4,4′-[(9,13-bis{2-[2-(2-{[2-carboxy-6-({16-[(6-carboxypyridin-2-yl)methyl]-1,4,10,13-tetraoxa-7,16-diazacyclooctadecan-7-yl}methyl)pyridin-4-yl]amino}-2-oxoethoxy)acetamido]ethyl}-1,5,17,21-tetraoxo-3,19-dioxa-6,9,13,16-tetraazahenicosane-1,21-diyl)diimino]bis[6-({16-[(6-carboxypyridin-2-yl)methyl]-1,4,10,13-tetraoxa-7,16-diazacyclooctadecan-7-yl}methyl)pyridine-2-carboxylic acid]] |  | high labelling efficiency | 74 |  | 
9 | O=C(CCc1cc(CN2CCOCCOCCN(Cc3cccc(C(=O)O)n3)CCOCCOCC2)nc(C(=O)O)c1)NCCN(CCCN(CCNC(=O)CCc1cc(CN2CCOCCOCCN(Cc3cccc(C(=O)O)n3)CCOCCOCC2)nc(C(=O)O)c1)CCNC(=O)CCc1cc(CN2CCOCCOCCN(Cc3cccc(C(=O)O)n3)CCOCCOCC2)nc(C(=O)O)c1)CCNC(=O)CCc1cc(CN2CCOCCOCCN(Cc3cccc(C(=O)O)n3)CCOCCOCC2)nc(C(=O)O)c1 [Tet5, 4,4′-[7,11-bis(2-{3-[2-carboxy-6-({16-[(6-carboxypyridin-2-yl)methyl]-1,4,10,13-tetraoxa-7,16-diazacyclooctadecan-7-yl}methyl)pyridin-4-yl]propanamido}ethyl)-3,15-dioxo-4,7,11,14-tetraazaheptadecane-1,17-diyl]bis[6-({16-[(6-carboxypyridin-2-yl)methyl]-1,4,10,13-tetraoxa-7,16-diazacyclooctadecan-7-yl}methyl)pyridine-2-carboxylic acid]] |  | high labelling efficiency | 95 | 36 | 
10 | COC(=O)c1cccc(CN2CCOCCOCCN(Cc3cc(NC(=O)COCC(=O)NCCN(CCN)CCCN(CCNC(=O)COCC(=O)Nc4cc(CN5CCOCCOCCN(Cc6cccc(C(=O)OC)n6)CCOCCOCC5)nc(C(=O)OC)c4)CCNC(=O)COCC(=O)Nc4cc(CN5CCOCCOCCN(Cc6cccc(C(=O)OC)n6)CCOCCOCC5)nc(C(=O)OC)c4)cc(C(=O)OC)n3)CCOCCOCC2)n1 [Tri1] |  | high labelling efficiency | 89 |  | 
